Experiment in all cases: NCI tumour cell line growth inhibition, 48 h
The subject of assay [1] is HT-29.
Assay [2] has as its system U-251.
In assay [3] the test system is MCF7.
Assay [4] relates to 786-0.
Assay [5] deals with NCI-H460.
Assay [6] deals with A549.
Assay [7] deals with CCRF-CEM.
The subject of assay [8] is SK-OV-3.
The test system of assay [9] is OVCAR-3.
The test system of assay [10] is SF-295.
Assay [11] deals with MDA-MB-435.
The test system of assay [12] is SR.
For assay [13], the system named is PC-3.
Assay [14] concerns RXF 393.
The test system of assay [15] is ACHN.
Assay [16] deals with SK-MEL-28.
For assay [17], the system named is Malme-3M.
Assay [18] concerns UACC-62.
Assay [19] deals with HCT-15.
For assay [20], the system named is A498.

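How tested: cells in 96-well plates exposed to compound for 48 hours at five concentrations. GI50 is the concentration that inhibits growth by half.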 Active and inactive are the calls of the source. Rule as the data show it: active = GI50 up to about 1.1 µM and inactive = higher. Where only a bound is given, the exact number is not on record here.

For the compound `Clc1ccc2[nH]c(CC3CCCC3)nc2c1`, the GI50 in assay [1] was 12.2 µM (inactive); in [2], 17.6 µM (inactive); in assay [3] it was 6.61 µM (inactive); in assay [4], 16.6 µM (inactive); in assay [5] it was 17.6 µM (inactive); in assay [6], 21.7 µM (inactive). In addition, the GI50 in [7] is 26.2 µM (inactive); in [8] it was 22.3 µM (inactive); in assay [9], 6 µM (inactive); in assay [10] it was 16.1 µM (inactive); in assay [11], 6.52 µM (inactive); in assay [12], 2.45 µM (inactive). Besides, the GI50 in [13] is 20.1 µM (inactive); in assay [14] it was 14.7 µM (inactive); in assay [15], 17.1 µM (inactive); in assay [16], 22.8 µM (inactive); in [17] it was 25.5 µM (inactive); in assay [18], 15.8 µM (inactive). The compound also showed a GI50 in [19] of 6.87 µM.

`O=C(Cc1ccc([N+](=O)[O-])cc1)OCC#CCOC(=O)Cc1ccc([N+](=O)[O-])cc1`: the GI50 in assay [1], in [2], in [3], in assay [4], in assay [5] and in assay [6] was > 10 µM (inactive) throughout. Also, the GI50 in assay [7], in assay [8], in assay [9], in assay [10], in [11] and in assay [12] was > 10 µM (inactive) each time. Also, the GI50 is > 10 µM (inactive) in assay [13]; > 10 µM (inactive) in assay [14]; > 10 µM (inactive) in [15]; > 10 µM (inactive) in [17]; > 10 µM (inactive) in [18]; more than 10 µM in [19].

With `O=[N+]([O-])c1ccc2c(c1)nc1n2C(c2c(F)cccc2F)SC1` (stereo unspecified), the GI50 in [1] is > 100 µM (inactive); in [2], > 74.1 µM (inactive); in assay [3], > 100 µM (inactive); in assay [4] it was > 91.6 µM (inactive); in assay [5], > 100 µM (inactive); in assay [6] it was > 100 µM (inactive). In addition, the GI50 in assay [7], in [8], in assay [9], in [10], in [11] and in assay [12] was > 100 µM (inactive) throughout. Also, the GI50 in [13], in assay [14], in assay [15], in [16], in [17] and in [18] was > 100 µM (inactive) each time. This compound also came in with a GI50 in [19] of more than 100 µM.

On to `O=C1CCCC1CN1CCCC1` (stereo unspecified), for which the GI50 was 23.2 µM (inactive) in [1]; 23 µM (inactive) in [2]; 2.2 µM (inactive) in assay [3]; 5.22 µM (inactive) in assay [4]; 42.4 µM (inactive) in assay [5]; > 75.5 µM (inactive) in assay [6]. Besides, the GI50 in assay [7] was 0.207 µM (active); in assay [8], 13.8 µM (inactive); in assay [9], 14.2 µM (inactive); in assay [10] it was > 100 µM (inactive); in assay [11], 13.1 µM (inactive); in assay [12] it was 0.194 µM (active). The GI50 was 18.9 µM (inactive) in assay [13]; 6.08 µM (inactive) in [15]; 13.6 µM (inactive) in [16]; 22.5 µM (inactive) in assay [20]; 2.04 µM (inactive) in assay [17]; 17.7 µM (inactive) in assay [18]. This compound also had a GI50 in [19] of 2 µM.

Consider `O=C(O)c1cccc(S(=O)(=O)NN2C(=O)CSC2c2ccccc2Cl)c1` (stereo unspecified), for which the GI50 in [1], in assay [2], in [3], in assay [4], in assay [5] and in assay [6] was > 100 µM (inactive) each time. The GI50 in assay [7] was > 100 µM (inactive); in [8], > 100 µM (inactive); in assay [9], > 100 µM (inactive); in [10], > 100 µM (inactive); in assay [11], > 100 µM (inactive); in [12], 4.09 µM (inactive). The GI50 in assay [13], in assay [14], in [15], in [16], in [17] and in [18] was > 100 µM (inactive) in each case. In addition, the GI50 in [19] is more than 100 µM.

Turning to `COc1ccc2c(c1)[C@@]13CCCC[C@H]1[C@@H](C2)N(C)CC3=O`, the GI50 is 21.5 µM (inactive) in assay [1]; 22.2 µM (inactive) in assay [2]; 18.3 µM (inactive) in assay [3]; 17.9 µM (inactive) in [4]; 20.8 µM (inactive) in assay [5]; 19.9 µM (inactive) in assay [6]. The GI50 in assay [7] was 19.2 µM (inactive); in assay [8], 16 µM (inactive); in assay [9], 17.4 µM (inactive); in assay [10] it was 64.9 µM (inactive); in assay [11], 19 µM (inactive); in [12], 12.4 µM (inactive). Moreover, the GI50 was 14.8 µM (inactive) in [13]; 15.3 µM (inactive) in assay [14]; 16.6 µM (inactive) in assay [15]; 16.1 µM (inactive) in [16]; 18.5 µM (inactive) in [17]; 16.9 µM (inactive) in [18]. Besides, the GI50 in assay [19] is 17.8 µM.

For the compound `Clc1cc2nc(C3CCCCO3)[nH]c2cc1Cl` (stereo unspecified), the GI50 was 3.5 µM (inactive) in assay [1]; 34.3 µM (inactive) in assay [2]; 3.48 µM (inactive) in assay [3]; 34 µM (inactive) in [4]; 18.6 µM (inactive) in [5]; 15.1 µM (inactive) in assay [6]. For the same compound, the GI50 in assay [7] was 35.3 µM (inactive); in assay [8] it was 15.9 µM (inactive); in assay [9] it was 5.09 µM (inactive); in assay [10] it was 38.6 µM (inactive); in [11], 7.67 µM (inactive); in assay [12] it was 4.49 µM (inactive). Moreover, the GI50 in assay [13] is 22.3 µM (inactive); in assay [14], 8.17 µM (inactive); in assay [15], 54.8 µM (inactive); in assay [16] it was > 60.3 µM (inactive); in [17] it was 38.5 µM (inactive); in [18] it was 24.5 µM (inactive). The GI50 in [19] was 6.98 µM.

Take `CN(c1ccccc1Cl)S(=O)(=O)c1ccc([N+](=O)[O-])cc1`: the GI50 in [1], in [2], in [3], in [4], in assay [5] and in assay [6] was > 100 µM (inactive) in each case. In addition, the GI50 in assay [7], in assay [8], in assay [9], in assay [10], in [11] and in assay [12] was > 100 µM (inactive) each time. The GI50 in [13], in assay [14], in assay [15], in [16], in assay [17] and in assay [18] was > 100 µM (inactive) each time. In assay [19], this compound showed a GI50 of more than 100 µM.

Source of the values: ChEMBL document CHEMBL1201862, “PubChem BioAssay data set” (2004).
